Converted amounts (≈) assume the structure as drawn. The source made the active and inactive calls. No cut-off for these calls is given here.
What was measured:
[1] = tested on: Escherichia coli; assay: Antibacterial activity against Escherichia coli CMCC 44103 assessed as inhibition of bacterial growth incubated for 24 hrs by broth microdilution method; format: functional
[2] = tested on: Staphylococcus aureus; assay: Antibacterial activity against methicillin-resistant Staphylococcus aureus 222 assessed as inhibition of bacterial growth incubated for 24 hrs by broth microdilution method; format: functional
[3] = tested on: Staphylococcus aureus; assay: Antibacterial activity against methicillin-resistant Staphylococcus aureus 206 assessed as inhibition of bacterial growth incubated for 24 hrs by broth microdilution method; format: functional
[4] = tested on: Escherichia coli; assay: Antibacterial activity against Escherichia coli ATCC 25922 assessed as inhibition of bacterial growth incubated for 24 hrs by broth microdilution method; format: functional
[5] = tested on: Staphylococcus aureus; assay: Antibacterial activity against methicillin-resistant Staphylococcus aureus 171 assessed as inhibition of bacterial growth incubated for 24 hrs by broth microdilution method; format: functional
[6] = tested on: Staphylococcus aureus; assay: Antibacterial activity against methicillin-resistant Staphylococcus aureus ATCC 43300 assessed as inhibition of bacterial growth incubated for 24 hrs by broth microdilution method; format: functional
[7] = tested on: Staphylococcus epidermidis; assay: Antibacterial activity against methicillin-resistant Staphylococcus epidermidis ATCC 51625 assessed as inhibition of bacterial growth incubated for 24 hrs by broth microdilution method; format: functional
[8] = tested on: Staphylococcus aureus; assay: Antibacterial activity against methicillin-resistant Staphylococcus aureus 575 assessed as inhibition of bacterial growth incubated for 24 hrs by broth microdilution method; format: functional
[9] = Cytotoxicity against human HepG2 cells assessed as reduction in cell viability measured after 48 hrs by CCK8 assay; format: toxicity, cell-based
[10] = tested on: Salmonella enterica; assay: Antibacterial activity against Salmonella enterica ATCC 14028 assessed as inhibition of bacterial growth incubated for 24 hrs by broth microdilution method; format: functional
[11] = tested on: Acinetobacter baumannii; assay: Antibacterial activity against carbapenem-resistant Acinetobacter baumannii 882 assessed as inhibition of bacterial growth incubated for 24 hrs by broth microdilution method; format: functional
[12] = tested on: Enterococcus; assay: Antibacterial activity against vancomycin-resistant Enterococcus 80 assessed as inhibition of bacterial growth incubated for 24 hrs by broth microdilution method; format: functional
[13] = tested on: Staphylococcus aureus; assay: Antibacterial activity against […] assessed as inhibition of bacterial growth incubated for 24 hrs by broth microdilution method; format: functional; details: ATCC 29213
[14] = Cytotoxicity against human HEK293 cells assessed as reduction in cell viability measured after 48 hrs by CCK8 assay; format: toxicity, cell-based
[15] = tested on: Acinetobacter baumannii; assay: Antibacterial activity against Acinetobacter baumannii ATCC 19606 assessed as inhibition of bacterial growth incubated for 24 hrs by broth microdilution method; format: functional
[16] = tested on: Staphylococcus aureus; assay: Antibacterial activity against methicillin-resistant Staphylococcus aureus ATCC 33591 assessed as inhibition of bacterial growth incubated for 24 hrs by broth microdilution method; format: functional
[17] = tested on: Staphylococcus aureus; assay: Antibacterial activity against methicillin-resistant Staphylococcus aureus 596 assessed as inhibition of bacterial growth incubated for 24 hrs by broth microdilution method; format: functional
[18] = Cytotoxicity against human A549 cells assessed as reduction in cell viability measured after 48 hrs by CCK8 assay; format: toxicity, cell-based
[19] = tested on: Klebsiella pneumoniae; assay: Antibacterial activity against multidrug-resistant Klebsiella pneumoniae 893 assessed as inhibition of bacterial growth incubated for 24 hrs by broth microdilution method; format: functional
[20] = tested on: Pseudomonas aeruginosa; assay: Antibacterial activity against multidrug-resistant Pseudomonas aeruginosa 126 assessed as inhibition of bacterial growth incubated for 24 hrs by broth microdilution method; format: functional
[21] = Aqueous solubility of the compound in physiological saline measured after 12 hrs by UV spectrophotometric analysis; format: physicochemical
[22] = tested on: Mycoplasmoides pneumoniae; assay: Anti-mycoplasma activity against Mycoplasma pneumoniae M129 ATCC15531 assessed as inhibition of mycoplasma growth measured after 7 days by broth microdilution method; format: functional; details: M129 ATCC15531, 168 h, time 7 day
[23] = tested on: Mesomycoplasma hyorhinis; assay: Anti-mycoplasma activity against Mycoplasma hyorhinis BTS-7 NCTC10130 assessed as inhibition of mycoplasma growth measured after 7 days by broth microdilution method; format: functional; details: BTS-7 NCTC10130, 168 h, time 7 day
[24] = tested on: Mycoplasmopsis synoviae; assay: Anti-mycoplasma activity against Mycoplasma synoviae WVU1853 NCTC10124 assessed as inhibition of mycoplasma growth measured after 7 days by broth microdilution method; format: functional; details: WVU1853 NCTC10124, 168 h, time 7 day
[25] = tested on: Mesomycoplasma hyopneumoniae; assay: Anti-mycoplasma activity against Mycoplasma hyopneumoniae LH assessed as inhibition of mycoplasma growth measured after 7 days by broth microdilution method; format: functional; details: 168 h, time 7 day
[26] = tested on: Mycoplasma genitalium; assay: Anti-mycoplasma activity against Mycoplasma genitalium G37 ATCC33530 assessed as inhibition of mycoplasma growth measured after 7 days by broth microdilution method; format: functional; details: Mycoplasmoides genitalium, G37 ATCC33530, 168 h; time 7 day
[27] = tested on: Mesomycoplasma hyopneumoniae; assay: Anti-mycoplasma activity against Mycoplasma hyopneumoniae J NCTC10110 assessed as inhibition of mycoplasma growth measured after 7 days by broth microdilution method; format: functional; details: J NCTC10110, 168 h, time 7 day
[28] = tested on: Mycoplasmoides gallisepticum; assay: Anti-mycoplasma activity against Mycoplasma gallisepticum R NCTC10115 assessed as inhibition of mycoplasma growth measured after 7 days by broth microdilution method; format: functional; details: R NCTC10115, 168 h, time 7 day
[29] = tested on: Metamycoplasma hominis; assay: Anti-mycoplasma activity against Mycoplasma hominis PG-21 ATCC23114 assessed as inhibition of mycoplasma growth measured after 7 days by broth microdilution method; format: functional; details: PG-21 ATCC23114, 168 h, time 7 day
[30] = tested on: Escherichia coli; assay: Disruption of biofilm formation in Escherichia coli ATCC 25922 assessed as inhibition of biofilm formation at MIC measured after 24 hrs by crystal violet staining based analysis; format: functional
[31] = tested on: Escherichia coli; assay: Disruption of biofilm formation in Escherichia coli ATCC 25922 assessed as inhibition of biofilm formation at 4XMIC measured after 24 hrs by crystal violet staining based analysis; format: functional
[32] = tested on: Staphylococcus aureus; assay: Antibacterial activity against methicillin-resistant Staphylococcus aureus ATCC 33591 infected in Kunming mouse assessed as animal survival rate at 5 mg/kg, ip for 7 days starting from 1 hr post-infection; format: functional; details: time 7.0 day
[33] = tested on: Staphylococcus aureus; assay: Antibacterial activity against methicillin-resistant Staphylococcus aureus ATCC 33591 infected in ip dosed Kunming mouse assessed as protection against bacterial infection administered for 7 days starting from 1 hr post-infection; format: functional
[34] = tested on: Staphylococcus aureus; assay: Disruption of biofilm formation in methicillin-resistant Staphylococcus aureus ATCC 33591 assessed as inhibition of biofilm formation at 4XMIC measured after 24 hrs by crystal violet staining based analysis; format: functional
[35] = tested on: Staphylococcus aureus; assay: Antibacterial activity against methicillin-resistant Staphylococcus aureus ATCC 33591 infected in Kunming mouse assessed as reduction in bacterial load in lungs at 10 mg/kg, ip for 2 days starting from 1 hr post-infection by hematoxylin-eosin staining based analysis; format: functional, organism-based; details: time 2.0 day
[36] = tested on: Staphylococcus aureus; assay: Antibacterial activity against methicillin-resistant Staphylococcus aureus ATCC 33591 infected in Kunming mouse assessed as reduction in bacterial load in kidney at 10 mg/kg, ip for 2 days starting from 1 hr post-infection by hematoxylin-eosin staining based analysis; format: functional, organism-based; details: time 2.0 day
[37] = tested on: Staphylococcus aureus; assay: Disruption of biofilm formation in methicillin-resistant Staphylococcus aureus ATCC 33591 assessed as inhibition of biofilm formation at MIC measured after 24 hrs by crystal violet staining based analysis; format: functional
[38] = tested on: Staphylococcus aureus; assay: Antibacterial activity against methicillin-resistant Staphylococcus aureus ATCC 33591 infected in Kunming mouse assessed as reduction in bacterial load in liver at 10 mg/kg, ip for 2 days starting from 1 hr post-infection by hematoxylin-eosin staining based analysis; format: functional, organism-based; details: time 2.0 day

Compound	MIC [1]	MIC [2]	MIC [3]	MIC [4]	MIC [5]	MIC [6]	MIC [7]	MIC [8]	CC50 at 48 h [9]	MIC [10]	MIC [11]	MIC [12]	MIC [13]	CC50 at 48 h [14]	MIC [15]	MIC [16]	MIC [17]	CC50 at 48 h [18]	MIC [19]	solubility at 12 h [21]	also measured
Br.C=C[C@]1(C)C[C@@H](OC(=O)CSc2nc(-c3cc[n+](Cc4ccc([N+](=O)[O-])cc4)cc3)cs2)[C@]2(C)[C@H](C)CC[C@]3(CCC(=O)[C@H]32)[C@@H](C)[C@@H]1O	0.5 µg/mL	2 µg/mL	16 µg/mL	1 µg/mL	64 µg/mL	0.5 µg/mL	2 µg/mL	16 µg/mL	75.8 µM	2 µg/mL	16 µg/mL	8 µg/mL	0.125 µg/mL	86.7 µM	2 µg/mL	1 µg/mL	2 µg/mL	> 100 µM	16 µg/mL	754 µM	MIC [20]: 8 µg/mL
C=C[C@]1(C)C[C@@H](OC(=O)CSCCN(CC)CC)[C@]2(C)[C@H](C)CC[C@]3(CCC(=O)[C@H]32)[C@@H](C)[C@@H]1O [TIAMULIN]	–	–	–	–	–	–	–	–	–	–	–	–	–	–	–	–	–	–	–	227 µM (≈ 112 µg/mL)	MIC [22]: 0.125 µg/mL (≈ 0.253 µM); MIC [23]: 0.03 µg/mL (≈ 0.0608 µM); MIC [24]: 2 µg/mL (≈ 4.05 µM); MIC [25]: 0.015 µg/mL (≈ 0.0304 µM); MIC [26]: 0.03 µg/mL (≈ 0.0608 µM); MIC [27]: 0.03 µg/mL (≈ 0.0608 µM); MIC [28]: 0.125 µg/mL (≈ 0.253 µM); MIC [29]: 0.25 µg/mL (≈ 0.506 µM)
C=C[C@]1(C)C[C@@H](OC(=O)CSc2nc(-c3cc[n+](Cc4ccc(OC)cc4)cc3)cs2)[C@]2(C)[C@H](C)CC[C@]3(CCC(=O)[C@H]32)[C@@H](C)[C@@H]1O.[Br-]	1 µg/mL	4 µg/mL	16 µg/mL	0.5 µg/mL	16 µg/mL	1 µg/mL	4 µg/mL	32 µg/mL	> 100 µM	0.5 µg/mL	8 µg/mL	2 µg/mL	0.5 µg/mL	95.4 µM	2 µg/mL	1 µg/mL	8 µg/mL	87.4 µM	64 µg/mL	653 µM	MIC [20]: 64 µg/mL
COc1c(N2C[C@@H]3CCCN[C@@H]3C2)c(F)cc2c(=O)c(C(=O)O)cn(C3CC3)c12 [MOXIFLOXACIN]	0.25 µg/mL (≈ 0.623 µM)	0.5 µg/mL (≈ 1.25 µM)	4 µg/mL (≈ 9.96 µM)	0.125 µg/mL (≈ 0.311 µM)	32 µg/mL (≈ 79.7 µM)	0.25 µg/mL (≈ 0.623 µM)	0.5 µg/mL (≈ 1.25 µM)	8 µg/mL (≈ 19.9 µM)	–	2 µg/mL (≈ 4.98 µM)	32 µg/mL (≈ 79.7 µM)	0.5 µg/mL (≈ 1.25 µM)	0.062 µg/mL (≈ 0.154 µM)	–	2 µg/mL (≈ 4.98 µM)	1 µg/mL (≈ 2.49 µM)	2 µg/mL (≈ 4.98 µM)	–	16 µg/mL (≈ 39.9 µM)	–	MIC [20]: 8 µg/mL (≈ 19.9 µM)
C=C[C@]1(C)C[C@@H](OC(=O)CSC(C)(C)CNC(=O)[C@H](N)C(C)C)[C@]2(C)[C@H](C)CC[C@]3(CCC(=O)[C@H]32)[C@@H](C)[C@@H]1O [VALNEMULIN]	64 µg/mL (≈ 113 µM)	–	–	16 µg/mL (≈ 28.3 µM)	–	8 µg/mL (≈ 14.2 µM)	64 µg/mL (≈ 113 µM)	–	87.3 µM	64 µg/mL (≈ 113 µM)	–	–	4 µg/mL (≈ 7.08 µM)	65.4 µM	2 µg/mL (≈ 3.54 µM)	128 µg/mL (≈ 227 µM)	–	88 µM	–	341 µM (≈ 193 µg/mL)	inhibition (INH) [30]: 26.52%; inhibition (INH) [31]: 64.02%; Activity [32]: Active; ED50 ([33]; ATCC 33591, 168 h, time 7 day): 12.3 mg/kg; Activity ([33]; time 7.0 day): Dose-Dependent Effect; inhibition (INH) [34]: 68.59%; Activity [35]: Active; Activity [36]: Active; inhibition (INH) [37]: 38.1%; Activity [38]: Active
C=C[C@]1(C)C[C@@H](OC(=O)CS[C@@H]2C[C@H]3CC[C@@H](C2)N3C)[C@]2(C)[C@H](C)CC[C@]3(CCC(=O)[C@H]32)[C@@H](C)[C@@H]1O [RETAPAMULIN]	32 µg/mL (≈ 61.8 µM)	32 µg/mL (≈ 61.8 µM)	128 µg/mL (≈ 247 µM)	32 µg/mL (≈ 61.8 µM)	128 µg/mL (≈ 247 µM)	16 µg/mL (≈ 30.9 µM)	64 µg/mL (≈ 124 µM)	64 µg/mL (≈ 124 µM)	76.5 µM	128 µg/mL (≈ 247 µM)	64 µg/mL (≈ 124 µM)	> 128 µg/mL	4 µg/mL (≈ 7.73 µM)	83.8 µM	4 µg/mL (≈ 7.73 µM)	32 µg/mL (≈ 61.8 µM)	32 µg/mL (≈ 61.8 µM)	> 100 µM	64 µg/mL (≈ 124 µM)	289 µM (≈ 150 µg/mL)	MIC [20]: 128 µg/mL (≈ 247 µM)
C=C[C@]1(C)C[C@@H](OC(=O)CSc2nc(-c3cc[n+](Cc4ccc(Br)cc4)cc3)cs2)[C@]2(C)[C@H](C)CC[C@]3(CCC(=O)[C@H]32)[C@@H](C)[C@@H]1O.[Br-]	0.5 µg/mL	–	–	2 µg/mL	–	1 µg/mL	8 µg/mL	–	–	4 µg/mL	–	–	0.5 µg/mL	–	2 µg/mL	2 µg/mL	–	–	–	760 µM	–

From ChEMBL document CHEMBL5338747, “Discovery of Quaternized Pyridine-Thiazole-Pleuromutilin Derivatives with Broad-Spectrum Antibacterial and Potent Anti-MRSA Activity” (J Med Chem, 2023)
